Measurements published in US20240409585A1, “MACROCYCLIC IMMUNOMODULATORS” (priority 2021, published 2024).
Bridge positions count the residues as written; N and C are the ends. Square brackets hold non-standard residues; d marks the D form. Peptide text beside a SMILES is read from it. * marks the point of attachment. ξ: configuration not given here. Phe(4-COOH) = N[C@@H](Cc1ccc(C(=O)O)cc1)C(=O)O; Bip = N[C@@H](Cc1ccc(-c2ccccc2)cc1)C(=O)O; Phe(3-CN) = N#Cc1cccc(C[C@H](N)C(=O)O)c1; Phe(3-OMe) = COc1cccc(C[C@H](N)C(=O)O)c1; Ala(2-furyl) = N[C@@H](Cc1ccco1)C(=O)O; Phe(3-Me) = Cc1cccc(C[C@H](N)C(=O)O)c1; Val(3-OH) = CC(C)(O)[C@H](N)C(=O)O; 3Pal = N[C@@H](Cc1cccnc1)C(=O)O; 3Thi = N[C@@H](Cc1ccsc1)C(=O)O; Cha = N[C@@H](CC1CCCCC1)C(=O)O; Cit = NC(=O)NCCC[C@H](N)C(=O)O; Ile(3ξ) = CCC(C)[C@H](N)C(=O)O; Thr(3ξ) = CC(O)[C@H](N)C(=O)O; NMeNle = CCCC[C@H](NC)C(=O)O; Carboxymethyl = O=C(O)C*; NMeA = CN[C@@H](C)C(=O)O; Orn = NCCC[C@H](N)C(=O)O; Dab = NCC[C@H](N)C(=O)O; Dap = NC[C@H](N)C(=O)O

Target: T1, PE-labeled human PD-L1-Ig binding to Jurkat cell line over-expressing human PD-1 (Jurkat-PD-1) (Homo sapiens, UniProt Q15116)
T1 construct: expressed in transfected cells; host or cells: Jurkat
T1 sequence (Q15116 25-288): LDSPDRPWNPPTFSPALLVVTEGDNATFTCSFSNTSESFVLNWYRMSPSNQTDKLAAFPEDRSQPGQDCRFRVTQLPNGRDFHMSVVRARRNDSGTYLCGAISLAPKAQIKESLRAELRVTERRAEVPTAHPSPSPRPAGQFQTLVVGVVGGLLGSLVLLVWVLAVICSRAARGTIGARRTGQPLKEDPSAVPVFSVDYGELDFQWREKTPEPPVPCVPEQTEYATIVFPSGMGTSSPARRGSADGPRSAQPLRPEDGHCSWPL
Experiment: Jurkat-PD-1 Cell Binding High-Content Screening Assay (CBA): Method 1
Details: Jurkat-hPD-1 cells, PE-labeled PD-L1-Ig 20 nM final; read-out: Jurkat HPDL1 PD1 IC50 (uM) (Method 1)

SMILES | IC50 [µM]
CC(C)C[C@H]1NC(=O)[C@H](C)N(C)C(=O)[C@H](Cc2ccc(OCC(=O)O)cc2)NC(=O)[C@H](Cc2ccc(-c3ccccc3)cc2)NC(=O)[C@H](Cc2ccc(C(=O)O)cc2)NC(=O)[C@H](Cc2c[nH]c3ccccc23)NC(=O)[C@H](CC(=O)O)NC(=O)[C@H](Cc2ccc(OCC(=O)O)cc2)NC(=O)[C@H](Cc2ccsc2)NC(=O)CSC[C@@H](C(=O)N[C@@H](CCN)C(N)=O)NC(=O)[C@H](CO)NC(=O)[C@H](C(C)(C)O)NC(=O)[C@H](CC2CCCCC2)NC(=O)[C@H](CCN)NC1=O [Compound 2130] ({CH2CO}-[3Thi]Y(Carboxymethyl)DW[Phe(4-COOH)][Bip]Y(Carboxymethyl)[NMeA][dL][Dab][Cha][Val(3-OH)]SC[Dab]-NH2; thioether N-14) | 0.03
COc1cccc(C[C@@H]2NC(=O)[C@H](Cc3ccccc3)NC(=O)CSC[C@@H](C(=O)NCC(N)=O)NC(=O)[C@H](CO)NC(=O)[C@H](C(C)C)NC(=O)[C@H](CC(C)C)NC(=O)[C@H](CC(N)=O)NC(=O)[C@@H](CC(C)C)NC(=O)[C@H](C)N(C)C(=O)[C@H](C(C)C)NC(=O)[C@H](Cc3ccc(-c4ccccc4)cc3)NC(=O)[C@H](CC(C)C)NC(=O)[C@H](Cc3c[nH]c4ccccc34)NC(=O)[C@H](CC(=O)O)NC2=O)c1 [Compound 1521] ({CH2CO}-F[Phe(3-OMe)]DWL[Bip]V[NMeA][dL]NLVSCG-NH2; thioether N-14) | 0.07
CC(C)C[C@@H]1NC(=O)[C@H](CCCN)NC(=O)[C@@H](CC(C)C)NC(=O)[C@H](C)N(C)C(=O)[C@H](CCC(=O)O)NC(=O)[C@H](Cc2ccc(-c3ccccc3)cc2)NC(=O)[C@H](C(C)C)NC(=O)[C@H](Cc2c[nH]c3ccccc23)NC(=O)[C@H](CC(=O)O)NC(=O)[C@H](Cc2ccc(O)cc2)NC(=O)[C@H](CC(N)=O)NC(=O)CSC[C@@H](C(=O)N[C@@H](C)C(N)=O)NC(=O)[C@H]([C@@H](C)O)NC(=O)[C@H](C(C)C)NC1=O [Compound 1239] ({CH2CO}-NYDWV[Bip]E[NMeA][dL][Orn]LVTCA-NH2; thioether N-14) | 0.08
CC(C)C[C@@H]1NC(=O)[C@H](Cc2c[nH]c3ccccc23)NC(=O)[C@H](CC(=O)O)NC(=O)[C@H](Cc2ccc(O)cc2)NC(=O)[C@H](Cc2cccnc2)NC(=O)CSC[C@@H](C(=O)N[C@@H](C)C(N)=O)NC(=O)[C@H](CO)NC(=O)[C@H](C(C)C)NC(=O)[C@H](CC(C)C)NC(=O)[C@H](CC(N)=O)NC(=O)[C@@H](C)NC(=O)[C@H](C)N(C)C(=O)[C@H](C(C)C)NC(=O)[C@H](Cc2ccc(-c3ccccc3)cc2)NC1=O [Compound 1741] ({CH2CO}-[3Pal]YDWL[Bip]V[NMeA][dA]NLVSCA-NH2; thioether N-14) | 0.02
CC(C)C[C@@H]1NC(=O)[C@H](Cc2c[nH]c3ccccc23)NC(=O)[C@H](CC(=O)O)NC(=O)[C@H](Cc2ccc(O)cc2)NC(=O)[C@H](Cc2ccccc2)NC(=O)CSC[C@@H](C(=O)N[C@@H](C)C(N)=O)NC(=O)[C@H]([C@@H](C)O)NC(=O)[C@H](CCCCN)NC(=O)[C@H](CC(C)C)NC(=O)[C@H](CC(N)=O)NC(=O)[C@@H](C)NC(=O)[C@H](C)N(C)C(=O)[C@H](C(C)C)NC(=O)[C@H](Cc2ccc(-c3ccccc3)cc2)NC1=O [Compound 1766] ({CH2CO}-FYDWL[Bip]V[NMeA][dA]NLKTCA-NH2; thioether N-14) | 0.04
CC(C)C[C@@H]1NC(=O)[C@H](CCCCN)NC(=O)[C@@H](CC(C)C)NC(=O)[C@H](C)N(C)C(=O)[C@H](CCCNC(=N)N)NC(=O)[C@H](Cc2ccc(-c3ccccc3)cc2)NC(=O)[C@H](C(C)C)NC(=O)[C@H](Cc2c[nH]c3ccccc23)NC(=O)[C@H](CC(=O)O)NC(=O)[C@H](Cc2ccc(O)cc2)NC(=O)[C@H](Cc2ccccc2)NC(=O)CSC[C@@H](C(=O)N[C@@H](CCC(=O)O)C(N)=O)NC(=O)[C@H]([C@@H](C)O)NC(=O)[C@H](C(C)C)NC1=O [Compound 1168] ({CH2CO}-FYDWV[Bip]R[NMeA][dL]KLVTCE-NH2; thioether N-14) | 0.12
CCC(C)[C@@H]1NC(=O)[C@H](Cc2ccc(-c3ccccc3)cc2)NC(=O)[C@H](C(C)C)NC(=O)[C@H](Cc2c[nH]c3ccccc23)NC(=O)[C@H](CC(=O)O)NC(=O)[C@H](Cc2cccc(OC)c2)NC(=O)[C@H](Cc2cccnc2)NC(=O)CSC[C@@H](C(=O)NCC(=O)N[C@@H](CN)C(=O)O)NC(=O)[C@H](C(C)O)NC(=O)[C@H](C(C)C)NC(=O)[C@H](CC2CCCCC2)NC(=O)[C@H](CC(N)=O)NC(=O)[C@@H](CC(C)C)NC(=O)[C@H](C)N(C)C1=O (stereo partly drawn) [Compound 2006] ({CH2CO}-[3Pal][Phe(3-OMe)]DWV[Bip][Ile(3ξ)][NMeA][dL]N[Cha]V[Thr(3ξ)]CG[Dap]-OH; thioether N-14) | 0.04
Cc1cccc(C[C@@H]2NC(=O)[C@H](CC(=O)O)NC(=O)[C@H](Cc3ccc(O)cc3)NC(=O)[C@H](CC(N)=O)NC(=O)CSC[C@@H](C(=O)N[C@@H](CCN)C(N)=O)NC(=O)[C@H](CCC(=O)O)NC(=O)[C@H](C(C)(C)O)NC(=O)[C@H](CC3CCCCC3)NC(=O)[C@H](CCN)NC(=O)[C@@H](CC(C)C)NC(=O)[C@H](C)N(C)C(=O)[C@H](CCCNC(N)=O)NC(=O)[C@H](Cc3ccc(-c4ccccc4)cc3)NC(=O)[C@H](C(C)(C)O)NC2=O)c1 [Compound 1711] ({CH2CO}-NYD[Phe(3-Me)][Val(3-OH)][Bip][Cit][NMeA][dL][Dab][Cha][Val(3-OH)]EC[Dab]-NH2; thioether N-14) | 0.06
CC(C)C[C@@H]1NC(=O)[C@H](CCN)NC(=O)[C@@H](CC(C)C)NC(=O)[C@H](C)N(C)C(=O)[C@H](CCCNC(N)=O)NC(=O)[C@H](Cc2ccc(-c3ccccc3)cc2)NC(=O)[C@H](C(C)C)NC(=O)[C@H](Cc2c[nH]c3ccccc23)NC(=O)[C@H](CC(=O)O)NC(=O)[C@H](Cc2cccc(C#N)c2)NC(=O)[C@H](CC(N)=O)NC(=O)CSC[C@@H](C(=O)N[C@@H](C)C(N)=O)NC(=O)[C@H]([C@@H](C)O)NC(=O)[C@H](C(C)C)NC1=O [Compound 1314] ({CH2CO}-N[Phe(3-CN)]DWV[Bip][Cit][NMeA][dL][Dab]LVTCA-NH2; thioether N-14) | 0.04
CC(C)C[C@@H]1NC(=O)[C@H](Cc2c[nH]c3ccccc23)NC(=O)[C@H](CC(=O)O)NC(=O)[C@H](Cc2ccc(O)cc2)NC(=O)[C@H](Cc2ccccc2)NC(=O)CSC[C@@H](C(=O)NCC(N)=O)NC(=O)[C@H](CO)NC(=O)[C@H](C(C)C)NC(=O)[C@H](CC(C)C)NC(=O)[C@H](CC(N)=O)NC(=O)CNC(=O)[C@H](C)N(C)C(=O)[C@H](C(C)C)NC(=O)[C@H](Cc2ccc(-c3ccccc3)cc2)NC1=O [Compound 1757] ({CH2CO}-FYDWL[Bip]V[NMeA]GNLVSCG-NH2; thioether N-14) | 0.03
CCCC[C@H]1C(=O)N[C@@H](Cc2ccc(C(=O)O)cc2)C(=O)N[C@@H](CC(=O)O)C(=O)N[C@@H](Cc2cccc(C)c2)C(=O)N[C@@H](Cc2ccc(C(=O)O)cc2)C(=O)N[C@@H](Cc2ccc(-c3ccccc3)cc2)C(=O)N[C@@H](Cc2ccc(C(=O)O)cc2)C(=O)N(C)[C@@H](C)C(=O)N[C@H](CC(C)C)C(=O)N[C@@H](CCN)C(=O)N[C@@H](CC2CCCCC2)C(=O)N[C@@H](C(C)(C)O)C(=O)N[C@@H](CO)C(=O)N[C@H](C(=O)N[C@@H](CCN)C(N)=O)CSCC(=O)N1C [Compound 2205] ({CH2CO}-[NMeNle][Phe(4-COOH)]D[Phe(3-Me)][Phe(4-COOH)][Bip][Phe(4-COOH)][NMeA][dL][Dab][Cha][Val(3-OH)]SC[Dab]-NH2; thioether N-14) | 0.06
CC(C)C[C@@H]1NC(=O)[C@H](Cc2c[nH]c3ccccc23)NC(=O)[C@H](CC(=O)O)NC(=O)[C@H](Cc2ccncc2)NC(=O)[C@H](CN)NC(=O)CSC[C@@H](C(=O)NCC(N)=O)NC[C@H](CO)NC(=O)[C@H](C(C)C)NC(=O)[C@H](CC2CCCCC2)NC(=O)[C@H](CC(N)=O)NC(=O)[C@@H](CC(C)C)NC(=O)[C@H](C)N(C)C(=O)[C@H](C(C)C)NC(=O)[C@H](Cc2ccc(-c3ccccc3)cc2)NC1=O [Compound 1625] | 0.01
CC(C)C[C@@H]1NC(=O)[C@H](Cc2c[nH]c3ccccc23)NC(=O)[C@H](CC(=O)O)NC(=O)[C@H](Cc2ccco2)NC(=O)[C@H](Cc2ccccc2)NC(=O)CSC[C@@H](C(=O)N[C@@H](C)C(N)=O)NC(=O)[C@H](CO)NC(=O)[C@H](C(C)C)NC(=O)[C@H](CC(C)C)NC(=O)[C@H](CC(N)=O)NC(=O)[C@@H](C)NC(=O)[C@H](C)N(C)C(=O)[C@H](C(C)C)NC(=O)[C@H](Cc2ccc(-c3ccccc3)cc2)NC1=O [Compound 1734] ({CH2CO}-F[Ala(2-furyl)]DWL[Bip]V[NMeA][dA]NLVSCA-NH2; thioether N-14) | 0.01
CC(C)C[C@@H]1NC(=O)[C@H](CCCN)NC(=O)[C@@H](CC(C)C)NC(=O)[C@H](C)N(C)C(=O)[C@H](CCCNC(=N)N)NC(=O)[C@H](Cc2ccc(-c3ccccc3)cc2)NC(=O)[C@H](C(C)C)NC(=O)[C@H](Cc2c[nH]c3ccccc23)NC(=O)[C@H](CC(=O)O)NC(=O)[C@H](Cc2ccc(O)cc2)NC(=O)[C@H](CC(N)=O)NC(=O)CSC[C@@H](C(=O)N[C@@H](CCC(=O)O)C(N)=O)NC(=O)[C@H]([C@@H](C)O)NC(=O)[C@H](C(C)C)NC1=O [Compound 1165] ({CH2CO}-NYDWV[Bip]R[NMeA][dL][Orn]LVTCE-NH2; thioether N-14) | 0.15
Cc1cccc(C[C@@H]2NC(=O)[C@H](CC(=O)O)NC(=O)[C@H](Cc3ccc(OCC(=O)O)cc3)NC(=O)[C@H]([C@@H](C)O)NC(=O)CSC[C@@H](C(N)=O)NC(=O)[C@H](CCC(N)=O)NC(=O)[C@H](C(C)C)NC(=O)[C@H](CC3CCCCC3)NC(=O)[C@H](CCN)NC(=O)[C@@H](CC(C)C)NC(=O)[C@H](C)N(C)C(=O)[C@H](Cc3ccc(OCC(=O)O)cc3)NC(=O)[C@H](Cc3ccc(-c4ccccc4)cc3)NC(=O)[C@H](Cc3ccc(OCC(=O)O)cc3)NC2=O)c1 [Compound 1671] ({CH2CO}-TY(Carboxymethyl)D[Phe(3-Me)]Y(Carboxymethyl)[Bip]Y(Carboxymethyl)[NMeA][dL][Dab][Cha]VQC-NH2; thioether N-14) | 0.09
